# Measurements taken from patent publication US9133154B2, “Substituted 3-phenylpropylamine derivatives for the treatment of ophthalmic diseases and disorders” (Acucela Inc., priority 2013, dated 2015).
# “Also recorded” adds a separate entry of the source.
# System: retinal isomerase activity (recovery of 11-cis-retinal)
# Assay: Comparative in vivo murine isomerase assay, dose response
# Set-up: species or system BALB/c mice
# Settings: for Avg. % Inhibition: 11-cis-retinal, drug vs. recovery control, listed as cmpd A
# Description: All test compounds were stored at room temperature, dessicated.
# On the day prior to dose administration compound A and compound D were weighed into new empty glass vials. The compounds were dissolved in di-water at the concentration of 0.833 mg/mL compound A and 0.892 mg/mL compound D, serially diluted into various concentrations, and stored overnight at 4° C.
# 56 Male BALB/c mice (Charles River Laboratories) were used for this study. The mice were approximately 8 weeks at the initiation of dosing with an average body weight of 24 grams.
# The day prior to dose administration 56 BALB/c mice were placed into a dark room and dark adapted for a minimum of 12 hours prior to dose administration. The mice were maintained in the dark for the duration of the study.
# Each animal was removed from its cage and dosed accordingly to the study design in Table 4 (see below). Each animal was administered 0.1 mL of the appropriate compound or vehicle via oral gavage using a 1 mL syringe fitted with a 23 gauge oral gavage needle. Two hours following dose administration, animals were removed from the dark and exposed to 5000 Lux white light for 10 minutes to photobleach their eyes. Following the completion of the photobleach the animals were returned to the dark for 2 hours to allow for the regeneration of 11-cis-retinal in the eyes. Two hours after photobleaching each animal was euthanized with carbon dioxide followed by cervical dislocation, in the dark under red light. The light control group was euthanized immediately following photobleaching. Immediately following the cervical dislocation both eyes of each animal were removed and transferred into separate tubes, flash frozen in liquid nitrogen and stored in the dark at −80° C. until processing and analysis.
# All sample processing procedures were performed in the dark under red light.
# Extracted samples were analyzed using an Agilent 1100 HPLC system according to the procedure outlined in Table 6 (see below)
# HPLC analysis of the eyes measures the peak area units of the 110cis-Ral-Oxime_syn. Signal.
# Data analysis % inhibition (drug vs. recovery control). % control (drug vs. light control), and One-way ANOVA (followed by Tukey's Multiple Comparison) were performed using peak area units and performed by Prism software. Data are represented as mean and standard deviation.
# [1] = BALB/c mice, single oral dose, 2 hours
compound,measurement,setting,value
NCC[C@@H](O)c1cccc(OCC2CCOCC2)c1 [Example 1],Avg. % Inhibition,"BALB/c mice, oral 0.3 mg/kg, 2 hours, 0.3 mg/kg",92.4%
same,Avg. % Inhibition,"BALB/c mice, oral 0.5 mg/kg, 2 hours, 0.5 mg/kg",99.3%
same,significance of inhibitory effect on the recovery of 11-cis-retinal vs. recovery control,"BALB/c mice, single oral dose 0.03-3 mg/kg, 2 hours, listed as compound A","statistically significant difference, P<0.001 for 0.3, 0.5, 1 and 3 mg/kg dose levels; also recorded: significant inhibitory effect at 0.3 mg/kg, 0.5 mg/kg, 1 mg/kg and 3 mg/kg dose levels"
same,IC50 (dose response experiment),[1],0.17 mg/kg
same,dose at which 11-cis-retinal recovery was inhibited by 50%,[1],0.17 mg/kg
same,times more active than compound D,by IC50 of the dose response experiment,3-4 ×
same,times more active than compound D,by dose showing nearly 100% inhibition (0.5 vs 3.0 mg/kg),approximately 6 ×
same,times more active than compound D,by inhibition at a dose of 0.3 mg/kg,greater than 10 ×
